Reference: ChEMBL document CHEMBL1152560, “Substituted 2-arylbenzothiazoles as kinase inhibitors: hit-to-lead optimization” (Bioorg Med Chem, 2009)

Legend:
[1] = biological target: Casein kinase I isoform delta (Homo sapiens) (UniProt P48730); experiment: Residual activity of CK1delta at 1 uM by microplate scintillation counting
[2] = biological target: T1, Protein kinase C epsilon type (Homo sapiens) (UniProt Q02156); experiment: Residual activity of PKCepsilon at 10 uM by microplate scintillation counting
T1 sequence (whole entry): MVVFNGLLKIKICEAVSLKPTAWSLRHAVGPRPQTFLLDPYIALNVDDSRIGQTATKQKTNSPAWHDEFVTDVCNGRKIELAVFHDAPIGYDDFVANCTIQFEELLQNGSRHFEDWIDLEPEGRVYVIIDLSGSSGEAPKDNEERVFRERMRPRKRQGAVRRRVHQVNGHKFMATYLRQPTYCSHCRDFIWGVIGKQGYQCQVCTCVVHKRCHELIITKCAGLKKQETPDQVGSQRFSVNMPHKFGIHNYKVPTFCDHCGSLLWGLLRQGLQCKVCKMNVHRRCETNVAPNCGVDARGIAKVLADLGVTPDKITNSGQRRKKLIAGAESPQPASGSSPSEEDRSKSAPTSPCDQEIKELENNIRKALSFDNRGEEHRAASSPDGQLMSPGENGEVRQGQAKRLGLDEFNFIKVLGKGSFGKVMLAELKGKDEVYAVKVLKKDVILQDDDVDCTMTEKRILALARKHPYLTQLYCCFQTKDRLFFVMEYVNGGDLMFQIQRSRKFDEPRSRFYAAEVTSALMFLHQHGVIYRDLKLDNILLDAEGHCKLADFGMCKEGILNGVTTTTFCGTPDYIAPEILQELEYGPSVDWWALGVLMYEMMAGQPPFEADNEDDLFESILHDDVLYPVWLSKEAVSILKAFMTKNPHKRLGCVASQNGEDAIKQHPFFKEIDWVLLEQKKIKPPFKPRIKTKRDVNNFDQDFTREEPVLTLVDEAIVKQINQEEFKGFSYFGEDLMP

[3] = biological target: SRSF protein kinase 1 (Homo sapiens) (UniProt Q96SB4); experiment: Residual activity of SRPK1 at 1 uM by microplate scintillation counting
Chain of SRSF protein kinase 1 (Homo sapiens) (Q96SB4 whole entry): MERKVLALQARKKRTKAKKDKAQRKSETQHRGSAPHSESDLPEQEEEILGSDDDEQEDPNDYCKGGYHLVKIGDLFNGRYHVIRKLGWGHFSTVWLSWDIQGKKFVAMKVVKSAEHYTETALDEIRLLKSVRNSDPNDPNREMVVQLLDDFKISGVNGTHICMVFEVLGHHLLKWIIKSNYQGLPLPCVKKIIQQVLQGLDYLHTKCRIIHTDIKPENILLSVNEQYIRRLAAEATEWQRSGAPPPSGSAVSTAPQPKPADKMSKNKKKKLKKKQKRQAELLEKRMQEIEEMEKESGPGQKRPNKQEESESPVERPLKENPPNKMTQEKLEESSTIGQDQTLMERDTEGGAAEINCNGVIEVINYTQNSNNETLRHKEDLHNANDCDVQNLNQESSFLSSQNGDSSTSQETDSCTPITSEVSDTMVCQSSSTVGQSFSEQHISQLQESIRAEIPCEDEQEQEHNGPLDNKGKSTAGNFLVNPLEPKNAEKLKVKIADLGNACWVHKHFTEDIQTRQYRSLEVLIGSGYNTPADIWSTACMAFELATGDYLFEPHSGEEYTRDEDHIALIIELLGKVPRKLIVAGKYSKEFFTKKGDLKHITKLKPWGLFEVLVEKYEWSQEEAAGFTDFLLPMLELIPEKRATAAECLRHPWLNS

[4] = biological target: Ribosomal protein S6 kinase alpha-4 (Homo sapiens) (UniProt O75676); experiment: Residual activity of RPS6KA4 at 1 uM by microplate scintillation counting
Chain of Ribosomal protein S6 kinase alpha-4 (Homo sapiens) (O75676 whole entry, looked up): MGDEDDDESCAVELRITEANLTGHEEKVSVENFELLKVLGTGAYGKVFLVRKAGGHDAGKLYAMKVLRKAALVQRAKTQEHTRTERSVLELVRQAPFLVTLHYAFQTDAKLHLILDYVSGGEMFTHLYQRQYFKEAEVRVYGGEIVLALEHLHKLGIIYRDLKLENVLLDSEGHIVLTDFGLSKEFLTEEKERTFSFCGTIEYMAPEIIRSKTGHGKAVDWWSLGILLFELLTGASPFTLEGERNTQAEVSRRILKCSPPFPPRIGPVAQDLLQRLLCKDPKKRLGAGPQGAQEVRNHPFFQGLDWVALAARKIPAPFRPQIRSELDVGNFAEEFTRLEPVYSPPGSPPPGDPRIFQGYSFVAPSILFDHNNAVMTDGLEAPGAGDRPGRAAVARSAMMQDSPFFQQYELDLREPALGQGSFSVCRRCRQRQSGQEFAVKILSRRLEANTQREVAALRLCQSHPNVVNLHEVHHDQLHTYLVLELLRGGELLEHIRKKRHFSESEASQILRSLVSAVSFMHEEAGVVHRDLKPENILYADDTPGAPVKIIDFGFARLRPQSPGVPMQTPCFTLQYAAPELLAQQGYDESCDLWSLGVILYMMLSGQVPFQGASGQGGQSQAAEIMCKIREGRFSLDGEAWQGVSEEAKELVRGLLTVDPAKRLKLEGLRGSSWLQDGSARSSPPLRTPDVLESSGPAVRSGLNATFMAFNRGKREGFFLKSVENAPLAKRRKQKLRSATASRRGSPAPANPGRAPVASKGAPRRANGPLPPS

[5] = biological target: T2, Tyrosine-protein kinase JAK3 (Homo sapiens) (UniProt P52333); experiment: Residual activity of JAK3 at 0.1 uM by microplate scintillation counting
T2 sequence (whole entry): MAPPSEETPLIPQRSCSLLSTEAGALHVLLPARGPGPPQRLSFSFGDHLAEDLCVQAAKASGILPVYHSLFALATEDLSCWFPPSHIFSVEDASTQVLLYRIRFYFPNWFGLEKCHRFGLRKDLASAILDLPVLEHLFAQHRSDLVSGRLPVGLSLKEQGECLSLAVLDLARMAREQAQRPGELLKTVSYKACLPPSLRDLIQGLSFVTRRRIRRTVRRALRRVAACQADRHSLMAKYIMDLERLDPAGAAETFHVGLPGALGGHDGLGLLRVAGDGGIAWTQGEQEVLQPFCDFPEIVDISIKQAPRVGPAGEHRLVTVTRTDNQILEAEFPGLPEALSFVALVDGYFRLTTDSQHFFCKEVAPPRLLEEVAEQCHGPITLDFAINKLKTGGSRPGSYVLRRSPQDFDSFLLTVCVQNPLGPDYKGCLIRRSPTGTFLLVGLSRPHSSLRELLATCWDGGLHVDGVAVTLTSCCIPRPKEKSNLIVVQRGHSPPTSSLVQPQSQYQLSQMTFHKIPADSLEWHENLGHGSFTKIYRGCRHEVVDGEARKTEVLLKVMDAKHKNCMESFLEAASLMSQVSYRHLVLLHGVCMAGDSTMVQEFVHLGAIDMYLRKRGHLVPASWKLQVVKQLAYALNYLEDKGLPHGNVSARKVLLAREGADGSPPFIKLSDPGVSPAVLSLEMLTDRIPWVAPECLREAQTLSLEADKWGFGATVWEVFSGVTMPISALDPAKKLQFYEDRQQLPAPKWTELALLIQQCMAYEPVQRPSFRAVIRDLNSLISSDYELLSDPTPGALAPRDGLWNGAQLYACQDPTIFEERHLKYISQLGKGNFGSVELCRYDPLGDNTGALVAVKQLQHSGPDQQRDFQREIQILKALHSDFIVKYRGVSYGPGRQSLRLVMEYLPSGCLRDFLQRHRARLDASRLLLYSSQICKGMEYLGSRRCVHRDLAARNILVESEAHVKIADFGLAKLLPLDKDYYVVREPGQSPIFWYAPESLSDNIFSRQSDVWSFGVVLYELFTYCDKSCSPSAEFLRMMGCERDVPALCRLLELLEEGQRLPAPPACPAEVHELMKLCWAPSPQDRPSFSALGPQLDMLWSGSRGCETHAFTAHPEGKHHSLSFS

[6] = biological target: Macrophage colony-stimulating factor 1 receptor (Homo sapiens) (UniProt P07333); experiment: Residual activity of CSF1R at 10 uM by microplate scintillation counting
Chain of Macrophage colony-stimulating factor 1 receptor (Homo sapiens) (P07333 whole entry): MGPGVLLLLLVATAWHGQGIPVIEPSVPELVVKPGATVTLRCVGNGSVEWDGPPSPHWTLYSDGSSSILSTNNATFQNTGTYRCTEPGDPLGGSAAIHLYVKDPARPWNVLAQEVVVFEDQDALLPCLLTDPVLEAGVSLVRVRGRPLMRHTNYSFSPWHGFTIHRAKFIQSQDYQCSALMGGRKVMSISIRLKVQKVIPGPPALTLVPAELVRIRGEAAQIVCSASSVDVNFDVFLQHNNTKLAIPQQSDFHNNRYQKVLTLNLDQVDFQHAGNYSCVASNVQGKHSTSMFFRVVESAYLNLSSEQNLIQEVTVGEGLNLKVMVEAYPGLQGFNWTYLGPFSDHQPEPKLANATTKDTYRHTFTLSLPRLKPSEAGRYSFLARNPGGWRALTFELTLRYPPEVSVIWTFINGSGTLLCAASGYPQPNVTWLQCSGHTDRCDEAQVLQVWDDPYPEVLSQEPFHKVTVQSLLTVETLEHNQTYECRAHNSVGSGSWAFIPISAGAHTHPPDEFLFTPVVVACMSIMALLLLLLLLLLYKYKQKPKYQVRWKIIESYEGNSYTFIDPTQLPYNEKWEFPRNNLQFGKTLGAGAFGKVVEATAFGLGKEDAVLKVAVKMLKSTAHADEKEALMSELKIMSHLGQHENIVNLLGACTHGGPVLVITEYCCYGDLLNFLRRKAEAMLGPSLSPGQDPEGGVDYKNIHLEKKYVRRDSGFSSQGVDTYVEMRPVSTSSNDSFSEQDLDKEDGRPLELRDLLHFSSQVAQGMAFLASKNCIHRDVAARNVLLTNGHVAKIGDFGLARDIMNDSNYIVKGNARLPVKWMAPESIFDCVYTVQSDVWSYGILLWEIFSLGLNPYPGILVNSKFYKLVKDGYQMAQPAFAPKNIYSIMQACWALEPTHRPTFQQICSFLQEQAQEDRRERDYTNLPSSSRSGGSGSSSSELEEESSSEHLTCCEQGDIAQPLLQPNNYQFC

[7] = biological target: Ribosomal protein S6 kinase alpha-1 (Homo sapiens) (UniProt Q15418); experiment: Residual activity of RPS6KA1 at 10 uM by microplate scintillation counting
Chain of Ribosomal protein S6 kinase alpha-1 (Homo sapiens) (Q15418 whole entry): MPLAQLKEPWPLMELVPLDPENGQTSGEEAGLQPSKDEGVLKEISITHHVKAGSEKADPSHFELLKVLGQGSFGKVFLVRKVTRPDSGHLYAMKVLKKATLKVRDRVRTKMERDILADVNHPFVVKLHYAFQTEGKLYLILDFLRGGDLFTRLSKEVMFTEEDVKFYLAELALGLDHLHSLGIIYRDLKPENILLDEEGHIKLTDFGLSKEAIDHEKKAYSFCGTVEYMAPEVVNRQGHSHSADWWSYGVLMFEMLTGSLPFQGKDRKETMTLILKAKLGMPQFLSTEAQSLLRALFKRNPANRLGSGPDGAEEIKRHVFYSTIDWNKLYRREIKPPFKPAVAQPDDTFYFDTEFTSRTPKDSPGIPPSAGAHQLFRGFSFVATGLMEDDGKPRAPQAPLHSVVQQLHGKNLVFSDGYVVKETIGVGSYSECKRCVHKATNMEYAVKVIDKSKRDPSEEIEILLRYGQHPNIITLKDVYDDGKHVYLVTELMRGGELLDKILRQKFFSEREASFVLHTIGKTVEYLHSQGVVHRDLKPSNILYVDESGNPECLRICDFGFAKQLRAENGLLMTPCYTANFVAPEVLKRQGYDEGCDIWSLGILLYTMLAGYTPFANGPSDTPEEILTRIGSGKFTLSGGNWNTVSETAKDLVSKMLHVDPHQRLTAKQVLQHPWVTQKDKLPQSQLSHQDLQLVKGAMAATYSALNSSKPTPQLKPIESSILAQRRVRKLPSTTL

[8] = biological target: T3, Beta-adrenergic receptor kinase 1 (Homo sapiens) (UniProt P25098); experiment: Residual activity of GRK2 at 10 uM by microplate scintillation counting
T3 sequence (whole entry): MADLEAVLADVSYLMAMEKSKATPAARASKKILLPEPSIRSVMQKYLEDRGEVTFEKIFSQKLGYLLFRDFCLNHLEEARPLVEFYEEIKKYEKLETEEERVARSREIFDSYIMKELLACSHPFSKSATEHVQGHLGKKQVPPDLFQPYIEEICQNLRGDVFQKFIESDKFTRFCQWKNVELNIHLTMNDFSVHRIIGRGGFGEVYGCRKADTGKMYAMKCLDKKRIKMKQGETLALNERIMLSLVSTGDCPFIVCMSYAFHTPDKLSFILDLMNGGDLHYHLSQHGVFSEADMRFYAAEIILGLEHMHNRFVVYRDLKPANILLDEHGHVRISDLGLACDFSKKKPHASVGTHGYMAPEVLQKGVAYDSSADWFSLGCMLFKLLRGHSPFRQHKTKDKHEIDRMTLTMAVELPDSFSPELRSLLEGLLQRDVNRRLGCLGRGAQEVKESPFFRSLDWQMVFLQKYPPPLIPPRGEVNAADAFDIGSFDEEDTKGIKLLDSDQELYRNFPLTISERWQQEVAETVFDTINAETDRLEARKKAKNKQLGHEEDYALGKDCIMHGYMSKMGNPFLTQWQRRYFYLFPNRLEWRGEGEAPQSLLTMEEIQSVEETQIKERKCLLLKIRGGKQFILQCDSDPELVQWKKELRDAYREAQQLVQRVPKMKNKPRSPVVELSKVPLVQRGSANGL

Chain of Casein kinase I isoform delta (Homo sapiens) (P48730 whole entry, looked up, canonical isoform): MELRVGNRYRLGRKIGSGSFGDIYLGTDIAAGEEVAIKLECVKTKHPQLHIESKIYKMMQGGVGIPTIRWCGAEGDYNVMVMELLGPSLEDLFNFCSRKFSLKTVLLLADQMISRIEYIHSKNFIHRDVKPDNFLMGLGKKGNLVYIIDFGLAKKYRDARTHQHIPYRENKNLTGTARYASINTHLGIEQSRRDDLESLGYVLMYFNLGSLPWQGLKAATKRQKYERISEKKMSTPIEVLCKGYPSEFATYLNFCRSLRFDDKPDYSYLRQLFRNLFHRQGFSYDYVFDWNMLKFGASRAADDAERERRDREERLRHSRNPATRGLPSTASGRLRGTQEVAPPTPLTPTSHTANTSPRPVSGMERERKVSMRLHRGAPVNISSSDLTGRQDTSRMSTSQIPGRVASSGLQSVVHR

residual activity [1] [%]	residual activity [2] [%]	residual activity [3] [%]	residual activity [4] [%]	residual activity [5] [%]	residual activity [6] [%]	residual activity [7] [%]	residual activity [8] [%]	Compound
100	142	100	86	98	131	124	73	COc1cc2c(Oc3ccc(-c4nc5ccccc5s4)cc3)ncnc2cc1OCCCN1CCCC1
102	135	104	87	90	55	222	53	COc1cc2c(Oc3ccc(-c4nc5ccccc5s4)cc3F)ncnc2cc1OCCCN1CCN(C)CC1
96	128	103	86	95	127	206	58	COc1cc2c(Oc3ccc(-c4nc5ccccc5s4)cc3)ncnc2cc1OCCCN1CCN(C)CC1
